Where two headings read alike, the source gives them in different places.
Experiments:
[1] = standard compounds of the interpolation method; cited from earlier work
purified human BChE = target: T1, purified human BChE (Homo sapiens, UniProt P06276); experiment: biochemical; format: biochemical
T1 construct: possibly also a gift of Dr Florian Nachon (the sentence is ambiguous)
Method in brief: (§1)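 Modified Ellman assay with acetylthiocholine and DTNB in 0.1 M sodium phosphate pH 7.4 (enzymes diluted with 0.1% BSA), ≤0.2% DMSO, 25 °C. At least three inhibitor concentrations per substrate level; Ki,app from Hunter–Downs equation, Ki from y-intercept and inhibition type from Ki,app vs [S].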

recombinant human AChE = target: T2, recombinant human AChE (Homo sapiens, UniProt P22303); experiment: biochemical; format: biochemical
T2 construct: gift of Dr Florian Nachon (Armed Forces Biomedical Research Institute, Brétigny-sur-Orge, France)
T2 sequence (P22303 32-614): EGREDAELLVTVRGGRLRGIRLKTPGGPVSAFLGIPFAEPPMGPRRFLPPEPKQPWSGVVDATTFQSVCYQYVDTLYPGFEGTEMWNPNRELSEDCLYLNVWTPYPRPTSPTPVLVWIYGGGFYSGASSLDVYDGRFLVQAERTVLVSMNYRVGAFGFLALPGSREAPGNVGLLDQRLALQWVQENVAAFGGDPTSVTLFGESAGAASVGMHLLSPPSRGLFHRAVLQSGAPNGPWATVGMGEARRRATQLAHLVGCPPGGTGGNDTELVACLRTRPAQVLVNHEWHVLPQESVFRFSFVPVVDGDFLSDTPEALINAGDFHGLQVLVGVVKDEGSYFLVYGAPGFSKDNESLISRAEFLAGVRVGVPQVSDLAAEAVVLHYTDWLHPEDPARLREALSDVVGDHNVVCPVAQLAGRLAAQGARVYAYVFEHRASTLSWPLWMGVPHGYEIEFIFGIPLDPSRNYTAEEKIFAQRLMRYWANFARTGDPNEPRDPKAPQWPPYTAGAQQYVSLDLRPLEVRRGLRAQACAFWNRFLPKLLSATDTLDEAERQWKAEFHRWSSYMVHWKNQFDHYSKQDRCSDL
Method in brief: as §1

[2] = Reverse-phase thin-layer chromatographic lipophilicity (RF, RM0); format: physicochemical; conditions: for RM0: intercept of RM = RM0 + bC; for b: slope of RM = RM0 + bC
Method in brief: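 Lipophilicity from RP-TLC retention at 22±2 °C over a 4.5 cm development distance. Eluents: organic modifier (methanol, acetone or dioxane), water and hydrochloric acid, methanol stepped by 10%. RM0 obtained from RF.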

[3] = Ferric reducing antioxidant power (FRAP) assay; conditions: for FRAP: mean ± standard error of three experiments;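 as to FRAP: expressed as µM Fe2+ equivalents from an FeSO4·7H2O standard curve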
Method in brief: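 Ferric-TPTZ reduction measured by absorbance at 593 nm after 60 min at 37 °C in pH 3.6 acetate-buffered TPTZ/FeCl3 reagent, with test compounds at 10 and 100 µM. FRAP values calculated from an Fe2SO4·7H2O standard curve. Data from three independent experiments.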

[4] = Acetone/Water/Hydrochloric acid (conc.)
[5] = Dioxane/Water/Hydrochloric acid (conc.)
[6] = Methanol/Water/Hydrochloric acid (conc.)

T1 sequence (P06276 29-602): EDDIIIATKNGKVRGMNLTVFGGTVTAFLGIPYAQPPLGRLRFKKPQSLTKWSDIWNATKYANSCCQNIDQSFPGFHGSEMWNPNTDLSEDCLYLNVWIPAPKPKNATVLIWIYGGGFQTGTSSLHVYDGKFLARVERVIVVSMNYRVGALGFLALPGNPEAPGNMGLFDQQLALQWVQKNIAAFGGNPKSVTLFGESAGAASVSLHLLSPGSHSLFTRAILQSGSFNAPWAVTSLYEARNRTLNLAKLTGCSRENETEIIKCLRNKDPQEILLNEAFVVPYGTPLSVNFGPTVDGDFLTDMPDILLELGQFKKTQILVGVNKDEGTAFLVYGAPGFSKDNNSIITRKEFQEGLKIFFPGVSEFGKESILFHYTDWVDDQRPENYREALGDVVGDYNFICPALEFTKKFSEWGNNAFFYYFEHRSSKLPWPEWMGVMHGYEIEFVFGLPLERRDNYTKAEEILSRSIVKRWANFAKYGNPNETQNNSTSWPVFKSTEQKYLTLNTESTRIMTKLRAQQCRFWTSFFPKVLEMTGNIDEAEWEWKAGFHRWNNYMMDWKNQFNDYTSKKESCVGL

Oc1ccc(Cl)cc1Cl [2,4-dihlorfenol]
pKa1 [1]: 7.89

c1ccc2c(c1)Cc1ccccc1-2 [fluoren]
logP [1]: 4.18

c1ccc2c(c1)ccc1ccccc12 [fenantren]
logP [1]: 4.46

Oc1cccc2ccccc12 [Compound 1-naftol]
pKa1 [1]: 9.34

Clc1ccc2c(Nc3cccc(NCC45CC6CC(CC(C6)C4)C5)c3)ccnc2c1 [Compound 18]
decrease in BChE inhibition vs compound 5 (purified human BChE): up to 275 times | Ki (purified human BChE; logarithm of Ki in µM, BChE, dependent variable of the QSAR model, read-out: Y Measured 2 log(ki)Bche, log (Ki/µM BChE) (converted)): 5.5 µM | Ki (purified human BChE; ± standard error, 25 °C, ATCh substrate, read-out: Ki BChE): 5.5 ± 0.6 µM | IS (recombinant human AChE; IS = Ki(BChE)/Ki(AChE), IS > 1 selective to AChE): 0.6 | Ki (recombinant human AChE; log (Ki/µM AChE), read-out: Y Measured 1 log(ki)Ache (converted)): 8.99 µM | Ki (recombinant human AChE; ± standard error, 25 °C, ATCh substrate, read-out: Ki AChE): 9 ± 0.8 µM | RM0 [2, 4]: 2.074 | b [2, 4]: 3.191 | RM0 [2, 5]: 1.102 | b [2, 5]: 2.114 | RM0 [2, 6]: 2.664 | b [2, 6]: 3.468 | RF, Methanol/Water/Hydrochloric acid (conc.), mobile phase I ([2]; RP-18 silica, I = 90%MeOH/5%H2O/5%HCl): 0.71 | RF, Dioxane/Water/Hydrochloric acid (conc.), mobile phase II ([2]; RP-18 silica, II = 80%Dioxane/15%H2O/5%HCl): 0.75 | RF, Methanol/Water/Hydrochloric acid (conc.), mobile phase II ([2]; RP-18 silica, II = 85%MeOH/10%H2O/5%HCl): 0.68 | RF, Acetone/Water/Hydrochloric acid (conc.), mobile phase III ([2]; RP-18 silica, III = 70%AC/25%H2O/5%HCl): 0.55 | RF, Dioxane/Water/Hydrochloric acid (conc.), mobile phase III ([2]; RP-18 silica, III = 70%Dioxane/25%H2O/5%HCl): 0.71 | RF, Methanol/Water/Hydrochloric acid (conc.), mobile phase III ([2]; RP-18 silica, III = 80%MeOH/15%H2O/5%HCl): 0.5 | RF, Dioxane/Water/Hydrochloric acid (conc.), mobile phase IV ([2]; RP-18 silica, IV = 60%Dioxane/35%H2O/5%HCl): 0.7 | RF, Acetone/Water/Hydrochloric acid (conc.), mobile phase IV ([2]; RP-18 silica, IV = 65%AC/30%H2O/5%HCl): 0.5 | RF, Methanol/Water/Hydrochloric acid (conc.), mobile phase IV ([2]; RP-18 silica, IV = 75%MeOH/20%H2O/5%HCl): 0.49 | RF, Acetone/Water/Hydrochloric acid (conc.), mobile phase IX ([2]; RP-18 silica, IX = 40%AC/55%H2O/5%HCl): 0.1 | RF, Methanol/Water/Hydrochloric acid (conc.), mobile phase IX ([2]; RP-18 silica, IX = 50%MeOH/45%H2O/5%HCl): 0.09 | RF, Dioxane/Water/Hydrochloric acid (conc.), mobile phase V ([2]; RP-18 silica, V = 50%Dioxane/45%H2O/5%HCl): 0.48 | RF, Acetone/Water/Hydrochloric acid (conc.), mobile phase V ([2]; RP-18 silica, V = 60%AC/35%H2O/5%HCl): 0.4 | RF, Methanol/Water/Hydrochloric acid (conc.), mobile phase V ([2]; RP-18 silica, V = 70%MeOH/25%H2O/5%HCl): 0.41 | RF, Dioxane/Water/Hydrochloric acid (conc.), mobile phase VI ([2]; RP-18 silica, VI = 40%Dioxane/55%H2O/5%HCl): 0.3 | RF, Acetone/Water/Hydrochloric acid (conc.), mobile phase VI ([2]; RP-18 silica, VI = 55%AC/40%H2O/5%HCl): 0.36 | RF, Methanol/Water/Hydrochloric acid (conc.), mobile phase VI ([2]; RP-18 silica, VI = 65%MeOH/30%H2O/5%HCl): 0.34 | RF, Acetone/Water/Hydrochloric acid (conc.), mobile phase VII ([2]; RP-18 silica, VII = 50%AC/45%H2O/5%HCl): 0.3 | RF, Methanol/Water/Hydrochloric acid (conc.), mobile phase VII ([2]; RP-18 silica, VII = 60%MeOH/35%H2O/5%HCl): 0.22 | RF, Acetone/Water/Hydrochloric acid (conc.), mobile phase VIII ([2]; RP-18 silica, VIII = 45%AC/50%H2O/5%HCl): 0.21 | RF, Methanol/Water/Hydrochloric acid (conc.), mobile phase VIII ([2]; RP-18 silica, VIII = 55%MeOH/40%H2O/5%HCl): 0.13 | FRAP ([3]; 10 µM compound): 22 ± 6 µM | FRAP ([3]; 100 µM compound): 300 ± 32 µM | antioxidant power lower than that of Trolox ([3]; on average): ~20 times

Source: article PMC9229919, “4-Aminoquinoline-Based Adamantanes as Potential Anticholinesterase Agents in Symptomatic Treatment of Alzheimer’s Disease” (Pharmaceutics, 2022)
